Data taken from patent US20240150377A1, “MODULATORS OF CYSTIC FIBROSIS TRANSMEMBRANE CONDUCTANCE REGULATOR” (VERTEX PHARMACEUTICALS INCORPORATED, priority 2020, published 2024).
Like-named read-outs stand apart in the source and are kept apart here.

Key:
[1] = amide bond, 13-membered ring, DMF
CFTR = biological target: T1, CFTR (Homo sapiens, UniProt P13569, DEL508-508); test: HBE assay: Ussing chamber assay of CFTR-mediated short-circuit currents; type: cell-based; settings: for EC50: read-out: HBE EC50
T1 construct: endogenous in cells; host or cells: primary human bronchial epithelial cells from CF subjects (F508del/MF-HBE), differentiated at air-liquid interface
T1 sequence (P13569 with tags, fused parts or gaps DEL508-508): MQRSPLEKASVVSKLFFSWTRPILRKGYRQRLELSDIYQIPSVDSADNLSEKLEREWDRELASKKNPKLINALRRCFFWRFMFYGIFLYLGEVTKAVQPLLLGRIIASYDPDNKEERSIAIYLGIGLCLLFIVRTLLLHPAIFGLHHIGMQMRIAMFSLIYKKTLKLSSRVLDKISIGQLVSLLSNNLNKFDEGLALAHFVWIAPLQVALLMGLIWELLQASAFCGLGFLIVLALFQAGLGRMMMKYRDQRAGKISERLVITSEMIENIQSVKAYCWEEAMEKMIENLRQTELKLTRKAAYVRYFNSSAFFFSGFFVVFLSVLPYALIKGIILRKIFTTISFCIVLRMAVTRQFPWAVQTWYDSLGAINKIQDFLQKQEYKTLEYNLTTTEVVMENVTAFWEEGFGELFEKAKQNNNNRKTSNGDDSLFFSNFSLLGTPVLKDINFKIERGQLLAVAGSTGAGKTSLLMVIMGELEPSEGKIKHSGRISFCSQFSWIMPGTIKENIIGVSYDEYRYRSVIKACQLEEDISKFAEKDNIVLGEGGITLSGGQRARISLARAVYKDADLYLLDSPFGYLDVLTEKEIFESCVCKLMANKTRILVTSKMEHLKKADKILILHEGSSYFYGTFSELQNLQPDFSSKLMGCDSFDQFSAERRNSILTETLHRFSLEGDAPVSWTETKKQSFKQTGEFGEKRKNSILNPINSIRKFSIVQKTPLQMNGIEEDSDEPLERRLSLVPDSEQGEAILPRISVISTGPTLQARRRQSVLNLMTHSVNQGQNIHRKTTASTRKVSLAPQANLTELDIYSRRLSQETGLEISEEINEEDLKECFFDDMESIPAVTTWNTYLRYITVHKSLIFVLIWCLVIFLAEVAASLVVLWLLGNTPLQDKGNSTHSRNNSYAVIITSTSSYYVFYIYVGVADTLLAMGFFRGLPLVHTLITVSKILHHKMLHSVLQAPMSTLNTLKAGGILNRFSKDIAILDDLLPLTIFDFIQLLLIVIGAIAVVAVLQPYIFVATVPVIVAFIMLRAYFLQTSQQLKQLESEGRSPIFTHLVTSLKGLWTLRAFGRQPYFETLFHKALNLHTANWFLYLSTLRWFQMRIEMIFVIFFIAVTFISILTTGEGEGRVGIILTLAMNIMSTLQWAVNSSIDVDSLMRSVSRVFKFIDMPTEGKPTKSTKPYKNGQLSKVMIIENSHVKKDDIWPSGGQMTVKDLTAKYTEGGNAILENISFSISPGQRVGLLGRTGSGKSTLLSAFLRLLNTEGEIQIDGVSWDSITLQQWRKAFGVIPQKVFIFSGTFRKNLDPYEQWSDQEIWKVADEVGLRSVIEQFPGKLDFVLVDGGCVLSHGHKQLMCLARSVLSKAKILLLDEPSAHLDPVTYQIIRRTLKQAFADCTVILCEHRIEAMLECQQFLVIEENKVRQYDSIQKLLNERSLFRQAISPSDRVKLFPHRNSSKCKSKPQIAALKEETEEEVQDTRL
Method in brief: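 CFTR-mediated Isc (μA/cm²) equals the peak response to apical 20 μM forskolin minus the residual after a 20 μM each BPO/GlyH-101/CFTR inhibitor 172 cocktail, recorded in Ussing chambers at Vhold 0 mV, 37 °C, pH 7.4, with 30 μM apical amiloride. Cells were F508del/MF HBE cultures preincubated 18-24 h with corrector (concentration range or 10 μM) plus 1 μM ivacaftor in 20% human serum.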

[2] = Table 10, read-out: HBE Max activity (%)
[3] = Table 11, read-out: HBE Activity at 10 μM (%)
[4] = Table 11, read-out: HBE Max Activity (%)

## COCCN(C)c1cnc(CN2C(=O)c3cccc(c3)S(=O)(=O)Nc3nc(cc(-c4c(C)cccc4C)n3)OC[C@H]2CC(C)(C)C)nc1 [Compound 114, (11R)-6-(2,6-Dimethylphenyl)-11-(2,2-dimethylpropyl)-12-[[5-[2-methoxyethyl(methyl)amino]pyrimidin-2-yl]methyl]-2,2-dioxo-9-oxa-2λ^6-thia-3,5,12,19-tetrazatricyclo[12.3.1.14,8]nonadeca-1(18),4(19),5,7,14,16-hexaen-13-one]
[1]; from 3-[[4-(2,6-dimethylphenyl)-6-[(2R)-2-[[5-[2-methoxyethyl(methyl)amino]pyrimidin-2-yl]methylamino]-4,4-dimethyl-pentoxy]pyrimidin-2-yl]sulfamoyl]benzoic acid (Dihydrochloride salt), HATU/DIEA, 10.5 mM, 25.0 °C
  ring closure, yield after HPLC: 53%
CFTR; Table 10
  EC50: < 1 µM
CFTR; [2]
  Emax: > 60%

## Cc1cccc(C)c1-c1cc2nc(n1)NS(=O)(=O)c1cccc(c1)C(=O)N(Cc1ncc(N(C)CC(C)(C)C)cn1)[C@H](CC(C)(C)C)CO2 [Compound 115, (11R)-6-(2,6-Dimethylphenyl)-11-(2,2-dimethylpropyl)-12-[[5-[2,2-dimethylpropyl(methyl)amino]pyrimidin-2-yl]methyl]-2,2-dioxo-9-oxa-2λ^6-thia-3,5,12,19-tetrazatricyclo[12.3.1.14,8]nonadeca-1(18),4(19),5,7,14,16-hexaen-13-one]
[1]; from 3-[[4-(2,6-dimethylphenyl)-6-[(2R)-2-[[5-[2,2-dimethylpropyl(methyl)amino]pyrimidin-2-yl]methylamino]-4,4-dimethyl-pentoxy]pyrimidin-2-yl]sulfamoyl]benzoic acid (Dihydrochloride salt), HATU/DIEA, 19.3 mM, 25.0 °C
  ring closure, yield after HPLC: 50%
CFTR; Table 10
  EC50: < 1 µM
CFTR; [2]
  Emax: > 60%

## Cc1cccc(C)c1-c1cc2nc(n1)NS(=O)(=O)c1cccc(c1)C(=O)N(Cc1ncc(NCC(C)(C)C)cn1)[C@H](CC(C)(C)C)CO2 [Compound 116, (11R)-6-(2,6-Dimethylphenyl)-11-(2,2-dimethylpropyl)-12-[[5-(2,2-dimethylpropylamino)pyrimidin-2-yl]methyl]-2,2-dioxo-9-oxa-2λ^6-thia-3,5,12,19-tetrazatricyclo[12.3.1.14,8]nonadeca-1(18),4(19),5,7,14,16-hexaen-13-one]
[1]; from 3-[[4-(2,6-dimethylphenyl)-6-[(2R)-2-[[5-(2,2-dimethylpropylamino)pyrimidin-2-yl]methylamino]-4,4-dimethyl-pentoxy]pyrimidin-2-yl]sulfamoyl]benzoic acid (Dihydrochloride salt), HATU/DIEA, 23.6 mM, 25.0 °C
  ring closure, yield after HPLC: 15%
CFTR; [3]
  activation at 10 µM: > 60%
CFTR; Table 11
  EC50: < 1 µM
CFTR; [4]
  Emax: > 60%

## Cc1cccc(C)c1-c1cc2nc(n1)NS(=O)(=O)c1cccc(c1)C(=O)N(Cc1ncc(OC(C)C)cn1)[C@H](CC(C)(C)C)CO2 [Compound 118, (11R)-6-(2,6-Dimethylphenyl)-11-(2,2-dimethylpropyl)-12-{[5-(propan-2-yloxy)pyrimidin-2-yl]methyl}-9-oxa-2λ^6-thia-3,5,12,19-tetraazatricyclo[12.3.1.14,8]nonadeca-1(17),4,6,8(19),14(18),15-hexaene-2,2,13-trione]
[1]; from Cc1cccc(C)c1-c1cc(OC[C@@H](CC(C)(C)C)NCc2ncc(OC(C)C)cn2)nc(NS(=O)(=O)c2cccc(C(=O)O)c2)n1, CDMT/NMM, 14.3 mM, 13.25 h
  ring closure, yield after HPLC: 59%
CFTR; Table 11
  EC50: < 1 µM
CFTR; [4]
  Emax: > 60%

## Cc1cccc(C)c1-c1cc2nc(n1)NS(=O)(=O)c1cccc(c1)C(=O)N(Cc1ncc(N3CCC(C)(C)C3)cn1)[C@H](CC(C)(C)C)CO2 [Compound 119, (11R)-6-(2,6-Dimethylphenyl)-11-(2,2-dimethylpropyl)-12-[[5-(3,3-dimethylpyrrolidin-1-yl)pyrimidin-2-yl]methyl]-2,2-dioxo-9-oxa-2λ^6-thia-3,5,12,19-tetrazatricyclo[12.3.1.14,8]nonadeca-1(18),4(19),5,7,14,16-hexaen-13-one]
[1]; from 3-[[4-(2,6-dimethylphenyl)-6-[(2R)-2-[[5-(3,3-dimethylpyrrolidin-1-yl)pyrimidin-2-yl]methylamino]-4,4-dimethyl-pentoxy]pyrimidin-2-yl]sulfamoyl]benzoic acid (Dihydrochloride salt), CDMT/NMM, 29.4 mM
  ring closure, yield after HPLC: 47%
CFTR; Table 11
  EC50: 1 to 3 µM
CFTR; [4]
  Emax: > 60%

## Cc1cccc(C)c1-c1cc2nc(n1)NS(=O)(=O)c1cccc(c1)C(=O)N(Cc1nccc(C(F)(F)F)n1)[C@H](CC(C)(C)C)CO2 [Compound 122, (11R)-6-(2,6-Dimethylphenyl)-11-(2,2-dimethylpropyl)-12-{[4-(trifluoromethyl)pyrimidin-2-yl]methyl}-9-oxa-2λ^6-thia-3,5,12,19-tetraazatricyclo[12.3.1.14,8]nonadeca-1(17),4,6,8(19),14(18),15-hexaene-2,2,13-trione]
[1]; from Cc1cccc(C)c1-c1cc(OC[C@@H](CC(C)(C)C)NCc2nccc(C(F)(F)F)n2)nc(NS(=O)(=O)c2cccc(C(=O)O)c2)n1, CDMT/NMM, 27.3 mM
  ring closure, yield after HPLC: 48%
CFTR; Table 11
  EC50: < 1 µM
CFTR; [4]
  Emax: > 60%

## COCc1cccc(CN2C(=O)c3cccc(c3)S(=O)(=O)Nc3nc(cc(-c4c(C)cccc4C)n3)OC[C@H]2CC(C)(C)C)n1 [Compound 130, (11R)-6-(2,6-Dimethylphenyl)-11-(2,2-dimethylpropyl)-12-[[6-(methoxymethyl)-2-pyridyl]methyl]-2,2-dioxo-9-oxa-2λ^6-thia-3,5,12,19-tetrazatricyclo[12.3.1.14,8]nonadeca-1(18),4(19),5,7,14,16-hexaen-13-one]
[1]; from COCc1cccc(CN[C@@H](COc2cc(-c3c(C)cccc3C)nc(NS(=O)(=O)c3cccc(C(=O)O)c3)n2)CC(C)(C)C)n1, CDMT/NMM, 3.0 h, 2 steps
  ring closure, yield after HPLC: 10%
CFTR; Table 11
  EC50: < 1 µM
CFTR; [4]
  Emax: > 60%

## Cc1cccc(C)c1-c1cc2nc(n1)NS(=O)(=O)c1cccc(c1)C(=O)N(Cc1cc(C(C)(C)C)[nH]n1)[C@H](CC(C)(C)C)CO2 [Compound 134, (11R)-12-[(5-tert-Butyl-1H-pyrazol-3-yl)methyl]-6-(2,6-dimethylphenyl)-11-(2,2-dimethylpropyl)-2,2-dioxo-9-oxa-2λ^6-thia-3,5,12,19-tetrazatricyclo[12.3.1.14,8]nonadeca-1(18),4(19),5,7,14,16-hexaen-13-one]
[1]; from Cc1cccc(C)c1-c1cc(OC[C@@H](CC(C)(C)C)NCc2cc(C(C)(C)C)[nH]n2)nc(NS(=O)(=O)c2cccc(C(=O)O)c2)n1, CDMT/NMM, 3.0 h, 2 steps
  ring closure, yield after HPLC: 20%
CFTR; Table 10
  EC50: < 1 µM
CFTR; [2]
  Emax: > 60%

## Cc1cccc(C)c1-c1cc2nc(n1)NS(=O)(=O)c1cccc(c1)C(=O)N(Cc1cc(C3CC3)no1)[C@H](CC(C)(C)C)CO2 [Compound 137, (11R)-12-[(3-Cyclopropyl-1,2-oxazol-5-yl)methyl]-6-(2,6-dimethylphenyl)-11-(2,2-dimethylpropyl)-9-oxa-2λ^6-thia-3,5,12,19-tetraazatricyclo[12.3.1.14,8]nonadeca-1(17),4(19),5,7,14(18),15-hexaene-2,2,13-trione]
[1]; from Cc1cccc(C)c1-c1cc(OC[C@@H](CC(C)(C)C)NCc2cc(C3CC3)no2)nc(NS(=O)(=O)c2cccc(C(=O)O)c2)n1, HATU/TEA, 15.4 mM, 2.0 h
  ring closure, yield after HPLC: 44%
CFTR; Table 11
  EC50: < 1 µM
CFTR; [4]
  Emax: > 60%

## Cc1cccc(C)c1-c1cc2nc(n1)NS(=O)(=O)c1cccc(c1)C(=O)N(Cc1cnn3ccccc13)[C@H](CC(C)(C)C)CO2 [Compound 139, (11R)-6-(2,6-Dimethylphenyl)-11-(2,2-dimethylpropyl)-12-({pyrazolo[1,5-a]pyridin-3-yl}methyl)-9-oxa-2λ^6-thia-3,5,12,19-tetraazatricyclo[12.3.1.14,8]nonadeca-1(17),4,6,8(19),14(18),15-hexaene-2,2,13-trione]
[1]; from Cc1cccc(C)c1-c1cc(OC[C@@H](CC(C)(C)C)NCc2cnn3ccccc23)nc(NS(=O)(=O)c2cccc(C(=O)O)c2)n1, HATU/DIEA, 29.4 mM, 4.0 h
  ring closure, yield after HPLC: 57%
CFTR; Table 10, read-out: HBE activity at 10 (μM) (%)
  activation at 10 µM: > 60%

## Cc1cccc(C)c1-c1cc2nc(n1)NS(=O)(=O)c1cccc(c1)C(=O)N(Cc1cn(C)nn1)[C@H](CC(C)(C)C)CO2 [Compound 140, (11R)-6-(2,6-Dimethylphenyl)-11-(2,2-dimethylpropyl)-12-[(1-methyltriazol-4-yl)methyl]-2,2-dioxo-9-oxa-2λ^6-thia-3,5,12,19-tetrazatricyclo[12.3.1.14,8]nonadeca-1(18),4(19),5,7,14,16-hexaen-13-one]
[1]; from Cc1cccc(C)c1-c1cc(OC[C@@H](CC(C)(C)C)NCc2cn(C)nn2)nc(NS(=O)(=O)c2cccc(C(=O)O)c2)n1, HATU/DIEA, 29.1 mM, 15.0 h
  ring closure, yield after HPLC: 25%
CFTR; [3]
  activation at 10 µM: > 60%

## Cc1cccc(C)c1-c1cc2nc(n1)NS(=O)(=O)c1cccc(c1)C(=O)N(C[C@@H]1CN(C(=O)OC(C)(C)C)CCO1)[C@H](CC(C)(C)C)CO2 [Compound 141, tert-Butyl (2R)-2-[[(11R)-6-(2,6-dimethylphenyl)-11-(2,2-dimethylpropyl)-2,2,13-trioxo-9-oxa-2λ^6-thia-3,5,12,19-tetrazatricyclo[12.3.1.14,8]nonadeca-1(18),4(19),5,7,14,16-hexaen-12-yl]methyl]morpholine-4-carboxylate]
[1]; from Cc1cccc(C)c1-c1cc(OC[C@@H](CC(C)(C)C)NC[C@@H]2CN(C(=O)OC(C)(C)C)CCO2)nc(NS(=O)(=O)c2cccc(C(=O)O)c2)n1, CDMT/NMM, 26.4 mM
  ring closure, yield after HPLC: 69%
CFTR; Table 11
  EC50: < 1 µM
CFTR; [4]
  Emax: > 60%
